Test results as given in patent publication US10799496B2, “Naphthylenyl compounds for long-acting injectable compositions and related methods” (priority 2018, dated 2020).

Columns and labels:
[1] = Pharmacokinetic evaluation of the release of naltrexone from Compound 2 in rats following a single intramuscular injection; type: in vivo, Sprague-Dawley rats; conditions: for Compound 2 conc.: rat plasma
Protocol: Five male Sprague-Dawley rats were allowed to acclimate to the test facility for at least 2 days prior to study start. For dose administration of Compound 2, the rats were lightly anesthetized with isofluorane, the hind leg shaved and dosed intramuscularly with the formulation using a 21G needle. […] Serial whole blood samples were collected via sublingual route (˜150 μL) at 1, 8, and 24 hours post dose, and at 2, 4, 7, 10, 14, 17, 21, 24, 28, 35, 42, 49, 56, 63, 71, 78, 85, and 91 days post dose.
Blood samples were placed into K2EDTA blood collection tubes. After collection, blood samples were maintained chilled (on wet ice) and centrifuged (11,500 rpm for 2 minutes at 5 degrees C.) within 30 minutes to obtain plasma. Plasma was transferred into a single vial, 1.5 mL screw cap micro-centrifuge tube with inserts and stored at −80 degrees C. until analysis.
The formulation dosed was a crystalline suspension of Compound 2 (46 milligrams of Compound 2 dosed per animal), wherein the crystalline test article was characterized with a particle size distribution of Dv10=12.9 μm, Dv50=31.5 μm, and Dv90=63.1 μm (as measured via laser diffraction). The formulation was prepared the day before dosing. Details of the formulation dosed are described in Table D below.
Results of the above intramuscular rat study of Compound 2 are shown in Tables E and F. In particular, Table E reports the average blood plasma levels of naltrexone in rat (n=5) over 91 days following intramuscular administration.

[2] = Whole blood stability assay; type: in vitro ADME; conditions: prodrug 50 nM, fresh pooled human whole blood, 37 degrees C.; read-out: t1/2 at 37 degrees C. in human whole blood
Protocol: Naltrexone prodrug stability was assessed using freshly collected whole blood (within 24-hr collection) from pooled human (n=3) donors. The incubation mixtures were prepared by spiking the prodrugs into pre-warmed (37 degrees C.) fresh whole blood to a final concentration of 50 nM. After gentle mixing, aliquots of incubation mixtures were immediately transferred into four different 96-deep well plates. One plate was used for each time point. The plates were incubated at 37 degrees C. at a shaking speed of 100 rpm. At time points 15, 30, 60 and 120 minutes, the reaction was quenched by addition of a mixture of water and acetonitrile containing the internal standard (naltrexone-D3). Time point 0 minutes was prepared separately by spiking the prodrugs into a quenched whole blood to obtain a final concentration of 50 nM. All samples were vortexed at a low speed for 15 min and centrifuged at 3900 rpm for 15 min. Supernatants were transferred into 96-well plates for LC-MS/MS analysis to monitor the depletion of the prodrugs and the formation of naltrexone.
The amount of remaining prodrug and released naltrexone for each sample was quantitated against the calibration curves prepared with the whole blood. The human whole blood was purchased from BioreclamationIVT (Westbury, N.Y., USA). Naltrexone-D3 was purchased from CERILLIANT® (Round Rock, Tex., USA). […] Where multiple runs have been completed, average values are reported.

## O=C(Cc1ccc2cc(CC(=O)Oc3ccc4c5c3O[C@H]3C(=O)CC[C@@]6(O)[C@@H](C4)N(CC4CC4)CC[C@]536)ccc2c1)Oc1ccc2c3c1O[C@H]1C(=O)CC[C@@]4(O)[C@@H](C2)N(CC2CC2)CC[C@]314 [Compound 2, bis((4R,4aS,7aR,12bS)-3-(cyclopropylmethyl)-4a-hydroxy-7-oxo-2,3,4,4a,5,6,7,7a-octahydro-1H-4,12-methanobenzofuro[3,2-e]isoquinolin-9-yl) 2,2′-(naphthalene-2,6-diyl)diacetate]
[1]; single i.m. dose of Compound 2, day 0.042 (1 hr), Rat 1
  Compound 2 conc.: 0.223 ng/mL
[1]; single i.m. dose of Compound 2, day 0.042 (1 hr), Rat 2
  Compound 2 conc.: 0.112 ng/mL
[1]; single i.m. dose of Compound 2, day 0.042 (1 hr), Rat 3
  Compound 2 conc.: <0.1 ng/mL
[1]; single i.m. dose of Compound 2, day 0.042 (1 hr), Rat 4
  Compound 2 conc.: 0.131 ng/mL
[1]; single i.m. dose of Compound 2, day 0.042 (1 hr), Rat 5
  Compound 2 conc.: 0.113 ng/mL
[1]; single i.m. dose of Compound 2, day 0.33 (8 hr), Rat 1
  Compound 2 conc.: <0.1 ng/mL
[1]; single i.m. dose of Compound 2, day 0.33 (8 hr), Rat 2
  Compound 2 conc.: <0.1 ng/mL
[1]; single i.m. dose of Compound 2, day 0.33 (8 hr), Rat 3
  Compound 2 conc.: <0.1 ng/mL
[1]; single i.m. dose of Compound 2, day 0.33 (8 hr), Rat 4
  Compound 2 conc.: <0.1 ng/mL
[1]; single i.m. dose of Compound 2, day 0.33 (8 hr), Rat 5
  Compound 2 conc.: <0.1 ng/mL
[1]; single i.m. dose of Compound 2, day 1, Rat 1
  Compound 2 conc.: <0.1 ng/mL
[1]; single i.m. dose of Compound 2, day 1, Rat 2
  Compound 2 conc.: <0.1 ng/mL
[1]; single i.m. dose of Compound 2, day 1, Rat 3
  Compound 2 conc.: <0.1 ng/mL
[1]; single i.m. dose of Compound 2, day 1, Rat 4
  Compound 2 conc.: <0.1 ng/mL
[1]; single i.m. dose of Compound 2, day 1, Rat 5
  Compound 2 conc.: <0.1 ng/mL
[1]; single i.m. dose of Compound 2, day 2, Rat 1
  Compound 2 conc.: <0.1 ng/mL
[1]; single i.m. dose of Compound 2, day 2, Rat 2
  Compound 2 conc.: <0.1 ng/mL
[1]; single i.m. dose of Compound 2, day 2, Rat 3
  Compound 2 conc.: <0.1 ng/mL
[1]; single i.m. dose of Compound 2, day 2, Rat 4
  Compound 2 conc.: <0.1 ng/mL
[1]; single i.m. dose of Compound 2, day 2, Rat 5
  Compound 2 conc.: <0.1 ng/mL
[1]; single i.m. dose of Compound 2, day 7, Rat 1
  Compound 2 conc.: <0.1 ng/mL
[1]; single i.m. dose of Compound 2, day 7, Rat 2
  Compound 2 conc.: <0.1 ng/mL
[1]; single i.m. dose of Compound 2, day 7, Rat 3
  Compound 2 conc.: 0.175 ng/mL
[1]; single i.m. dose of Compound 2, day 7, Rat 4
  Compound 2 conc.: <0.1 ng/mL
[1]; single i.m. dose of Compound 2, day 7, Rat 5
  Compound 2 conc.: <0.1 ng/mL
[1]; single i.m. dose of Compound 2, day 10, Rat 1
  Compound 2 conc.: 0.111 ng/mL
[1]; single i.m. dose of Compound 2, day 10, Rat 2
  Compound 2 conc.: <0.1 ng/mL
[1]; single i.m. dose of Compound 2, day 10, Rat 3
  Compound 2 conc.: 0.104 ng/mL
[1]; single i.m. dose of Compound 2, day 10, Rat 4
  Compound 2 conc.: 0.119 ng/mL
[1]; single i.m. dose of Compound 2, day 10, Rat 5
  Compound 2 conc.: <0.1 ng/mL
[1]; single i.m. dose of Compound 2, day 14, Rat 1
  Compound 2 conc.: 0.119 ng/mL
[1]; single i.m. dose of Compound 2, day 14, Rat 2
  Compound 2 conc.: 0.135 ng/mL
[1]; single i.m. dose of Compound 2, day 14, Rat 3
  Compound 2 conc.: <0.1 ng/mL
[1]; single i.m. dose of Compound 2, day 14, Rat 4
  Compound 2 conc.: 0.144 ng/mL
[1]; single i.m. dose of Compound 2, day 14, Rat 5
  Compound 2 conc.: 0.136 ng/mL
[1]; single i.m. dose of Compound 2, day 17, Rat 1
  Compound 2 conc.: <0.1 ng/mL
[1]; single i.m. dose of Compound 2, day 17, Rat 2
  Compound 2 conc.: <0.1 ng/mL
[1]; single i.m. dose of Compound 2, day 17, Rat 3
  Compound 2 conc.: <0.1 ng/mL
[1]; single i.m. dose of Compound 2, day 17, Rat 4
  Compound 2 conc.: <0.1 ng/mL
[1]; single i.m. dose of Compound 2, day 17, Rat 5
  Compound 2 conc.: <0.1 ng/mL
[1]; single i.m. dose of Compound 2, day 21, Rat 1
  Compound 2 conc.: <0.1 ng/mL
[1]; single i.m. dose of Compound 2, day 21, Rat 2
  Compound 2 conc.: <0.1 ng/mL
[1]; single i.m. dose of Compound 2, day 21, Rat 3
  Compound 2 conc.: <0.1 ng/mL
[1]; single i.m. dose of Compound 2, day 21, Rat 4
  Compound 2 conc.: <0.1 ng/mL
[1]; single i.m. dose of Compound 2, day 21, Rat 5
  Compound 2 conc.: 3.25 ng/mL
[1]; single i.m. dose of Compound 2, day 24, Rat 1
  Compound 2 conc.: 0.198 ng/mL
[1]; single i.m. dose of Compound 2, day 24, Rat 2
  Compound 2 conc.: 0.177 ng/mL
[1]; single i.m. dose of Compound 2, day 24, Rat 3
  Compound 2 conc.: 0.217 ng/mL
[1]; single i.m. dose of Compound 2, day 24, Rat 4
  Compound 2 conc.: 0.170 ng/mL
[1]; single i.m. dose of Compound 2, day 24, Rat 5
  Compound 2 conc.: 0.280 ng/mL
[1]; single i.m. dose of Compound 2, day 28, Rat 1
  Compound 2 conc.: 0.236 ng/mL
[1]; single i.m. dose of Compound 2, day 28, Rat 2
  Compound 2 conc.: 0.193 ng/mL
[1]; single i.m. dose of Compound 2, day 28, Rat 3
  Compound 2 conc.: 0.205 ng/mL
[1]; single i.m. dose of Compound 2, day 28, Rat 4
  Compound 2 conc.: 0.176 ng/mL
[1]; single i.m. dose of Compound 2, day 28, Rat 5
  Compound 2 conc.: 0.111 ng/mL
[1]; single i.m. dose of Compound 2, day 35, Rat 1
  Compound 2 conc.: 0.165 ng/mL
[1]; single i.m. dose of Compound 2, day 35, Rat 2
  Compound 2 conc.: 0.439 ng/mL
[1]; single i.m. dose of Compound 2, day 35, Rat 3
  Compound 2 conc.: 0.350 ng/mL
[1]; single i.m. dose of Compound 2, day 35, Rat 4
  Compound 2 conc.: 0.265 ng/mL
[1]; single i.m. dose of Compound 2, day 35, Rat 5
  Compound 2 conc.: 0.152 ng/mL
[1]; single i.m. dose of Compound 2, day 42, Rat 1
  Compound 2 conc.: 0.155 ng/mL
[1]; single i.m. dose of Compound 2, day 42, Rat 2
  Compound 2 conc.: 0.156 ng/mL
[1]; single i.m. dose of Compound 2, day 42, Rat 3
  Compound 2 conc.: 0.212 ng/mL
[1]; single i.m. dose of Compound 2, day 42, Rat 4
  Compound 2 conc.: 0.199 ng/mL
[1]; single i.m. dose of Compound 2, day 42, Rat 5
  Compound 2 conc.: 0.205 ng/mL
[1]; single i.m. dose of Compound 2, day 49, Rat 1
  Compound 2 conc.: <0.1 ng/mL
[1]; single i.m. dose of Compound 2, day 49, Rat 2
  Compound 2 conc.: <0.1 ng/mL
[1]; single i.m. dose of Compound 2, day 49, Rat 3
  Compound 2 conc.: <0.1 ng/mL
[1]; single i.m. dose of Compound 2, day 49, Rat 4
  Compound 2 conc.: <0.1 ng/mL
[1]; single i.m. dose of Compound 2, day 49, Rat 5
  Compound 2 conc.: <0.1 ng/mL
[1]; single i.m. dose of Compound 2, day 56, Rat 1
  Compound 2 conc.: 0.358 ng/mL
[1]; single i.m. dose of Compound 2, day 56, Rat 2
  Compound 2 conc.: 0.205 ng/mL
[1]; single i.m. dose of Compound 2, day 56, Rat 3
  Compound 2 conc.: 0.105 ng/mL
[1]; single i.m. dose of Compound 2, day 56, Rat 4
  Compound 2 conc.: 0.170 ng/mL
[1]; single i.m. dose of Compound 2, day 56, Rat 5
  Compound 2 conc.: 0.163 ng/mL
[1]; single i.m. dose of Compound 2, day 63, Rat 1
  Compound 2 conc.: <0.1 ng/mL
[1]; single i.m. dose of Compound 2, day 63, Rat 2
  Compound 2 conc.: <0.1 ng/mL
[1]; single i.m. dose of Compound 2, day 63, Rat 3
  Compound 2 conc.: <0.1 ng/mL
[1]; single i.m. dose of Compound 2, day 63, Rat 4
  Compound 2 conc.: 0.142 ng/mL
[1]; single i.m. dose of Compound 2, day 63, Rat 5
  Compound 2 conc.: <0.1 ng/mL
[1]; single i.m. dose of Compound 2, day 71, Rat 1
  Compound 2 conc.: <0.1 ng/mL
[1]; single i.m. dose of Compound 2, day 71, Rat 2
  Compound 2 conc.: <0.1 ng/mL
[1]; single i.m. dose of Compound 2, day 71, Rat 3
  Compound 2 conc.: <0.1 ng/mL
[1]; single i.m. dose of Compound 2, day 71, Rat 4
  Compound 2 conc.: <0.1 ng/mL
[1]; single i.m. dose of Compound 2, day 71, Rat 5
  Compound 2 conc.: <0.1 ng/mL
[1]; single i.m. dose of Compound 2, day 78, Rat 1
  Compound 2 conc.: <0.1 ng/mL
[1]; single i.m. dose of Compound 2, day 78, Rat 2
  Compound 2 conc.: <0.1 ng/mL
[1]; single i.m. dose of Compound 2, day 78, Rat 3
  Compound 2 conc.: <0.1 ng/mL
[1]; single i.m. dose of Compound 2, day 78, Rat 4
  Compound 2 conc.: <0.1 ng/mL
[1]; single i.m. dose of Compound 2, day 78, Rat 5
  Compound 2 conc.: <0.1 ng/mL
[1]; single i.m. dose of Compound 2, day 85, Rat 1
  Compound 2 conc.: <0.1 ng/mL
[1]; single i.m. dose of Compound 2, day 85, Rat 2
  Compound 2 conc.: <0.1 ng/mL
[1]; single i.m. dose of Compound 2, day 85, Rat 3
  Compound 2 conc.: <0.1 ng/mL
[1]; single i.m. dose of Compound 2, day 85, Rat 4
  Compound 2 conc.: <0.1 ng/mL
[1]; single i.m. dose of Compound 2, day 85, Rat 5
  Compound 2 conc.: <0.1 ng/mL
[1]; single i.m. dose of Compound 2, day 91, Rat 1
  Compound 2 conc.: <0.1 ng/mL
[1]; single i.m. dose of Compound 2, day 91, Rat 2
  Compound 2 conc.: <0.1 ng/mL
[1]; single i.m. dose of Compound 2, day 91, Rat 3
  Compound 2 conc.: <0.1 ng/mL
[1]; single i.m. dose of Compound 2, day 91, Rat 4
  Compound 2 conc.: <0.1 ng/mL
[1]; single i.m. dose of Compound 2, day 91, Rat 5
  Compound 2 conc.: <0.1 ng/mL
[1]; rat, single i.m. dose of Compound 2, over 91 days
  plasma concentrations of parent Compound 2 and the resultant intermediate: generally low to not measurable
[1]; rat, single i.m. dose, over 91 days
  conversion of Compound 2 in rats to naltrexone: efficient conversion
[2]
  half-life at 50 nM: 20.9 min
